Results reported in patent publication US6906057B1, “Methods for modulating FXR receptor activity” (Allergan, Inc., priority 1999, dated 2005).
Changes are numbered by the printed parent chain.

Assays:
FXR-RXRm heterodimer = target: T1, FXR-RXRm heterodimer (Rattus norvegicus, UniProt Q62735); test: EcRE-TK-Luc transactivation in CV-1 cells cotransfected with FXR and RXRm; assay type: cell-based; details: for FXR transactivating activity: Example 3, FIG. 3, FXR-RXRm, 100 nM unless otherwise indicated, AGN 10 10 μM; for transactivation activity, cells cotransfected with FXR and RXRm: Example 5, FIG. 6
T1 construct: Full-length recombinant rat FXR and human RXR (or RXRm) cloned into the cloning site of plasmid pCMX; expressed in transfected cells; host or cells: CV-1 cells
T1 sequence (Q62735 1-469): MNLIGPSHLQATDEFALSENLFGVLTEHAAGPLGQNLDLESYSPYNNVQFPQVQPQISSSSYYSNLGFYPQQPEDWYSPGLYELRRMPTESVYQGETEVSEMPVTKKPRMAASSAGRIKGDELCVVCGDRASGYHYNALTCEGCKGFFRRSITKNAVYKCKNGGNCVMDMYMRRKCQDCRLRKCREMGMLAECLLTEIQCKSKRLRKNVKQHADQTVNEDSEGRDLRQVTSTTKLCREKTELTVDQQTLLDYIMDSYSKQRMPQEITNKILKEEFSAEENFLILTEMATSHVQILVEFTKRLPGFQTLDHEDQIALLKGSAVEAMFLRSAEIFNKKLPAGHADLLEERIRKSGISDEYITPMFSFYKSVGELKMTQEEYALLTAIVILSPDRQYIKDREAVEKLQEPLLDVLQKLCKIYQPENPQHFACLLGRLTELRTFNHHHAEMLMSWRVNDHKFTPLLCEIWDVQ
T1 sequence (P19793 1-462 D322P partner): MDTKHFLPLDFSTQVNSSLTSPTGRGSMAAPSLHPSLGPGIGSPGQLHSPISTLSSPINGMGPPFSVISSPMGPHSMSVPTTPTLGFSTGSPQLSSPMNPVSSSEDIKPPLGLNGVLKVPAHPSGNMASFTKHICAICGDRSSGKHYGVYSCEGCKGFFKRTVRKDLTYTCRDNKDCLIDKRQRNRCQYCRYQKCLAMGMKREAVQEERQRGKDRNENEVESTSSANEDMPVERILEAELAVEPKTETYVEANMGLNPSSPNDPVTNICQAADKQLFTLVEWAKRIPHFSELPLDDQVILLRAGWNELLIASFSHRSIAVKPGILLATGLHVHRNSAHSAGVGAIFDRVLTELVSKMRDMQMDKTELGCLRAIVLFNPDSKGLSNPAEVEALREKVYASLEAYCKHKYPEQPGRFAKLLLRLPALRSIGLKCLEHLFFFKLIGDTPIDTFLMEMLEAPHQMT
Text: Because FXR is known to bind to its response element as a heterodimer with RXR, and because the heterodimer can be activated by ligands to RXR, a mutant RXRα protein (RXRm; also referred to as D322P in the Figures) was constructed containing a single point mutation (Asp322 to Pro) in the ligand binding domain of RXR. The use of FXR-RXRm heterodimers, permits unambiguous identification of modulators of FXR activity amongst test compounds.
(§1) Full-length recombinant rat FXR and human RXR (or RXRm) cloned into the cloning site of plasmid pCMX were cotransfected into CV-1 cells using the transient transfection method substantially as described above. Additionally, reporter plasmids were cotransfected with the expression plasmids as described above.
(§2) Luciferase reporter plasmids TK-Luc (described in Heyman et al., Cell 68:397 (1992), hereby incorporated by reference herein) were constructed by placing the firefly luciferase cDNA coding sequence in frame immediately downstream from the herpes virus thymidine kinase promoter (located at nucleotide residues −105 to +51) of the thymidine kinase nucleotide sequence). Six repeats of the EcRE response element, to which the DNA binding domain (DBD) of FXR binds, was also included upstream of the reporter gene. Further details are provided above.
(§3) AGN 10 has the structure: [drawing 3]
(§4) The cells were then lysed as described above, and luciferase activity was measured as an indication of the extent of heterodimer-induced FXR transactivation activity as described above Results are shown in FIG. 2.
CV-1 cells were cotransfected with mammalian expression vectors encoding full length FXR and RXRm, as well as with the luciferase reporter plasmid used in the last experiment. […] All compounds were dissolved in DMSO, except glycochenodeoxycholic acid, taurochenodeoxycholic acid, taurodeoxycholic acid and taurocholic acid, which were dissolved in phosphate buffered saline (PBS). Following exposure to the compounds, the cells were washed, lysed, and the luciferase activity measured as indicated above.
(§5) These compounds were assayed for FXR modulating activity using the transactivation assay described above. All compounds were dissolved in DMSO. As above, the reporter plasmid contained 6 copies of the ecdysone response element (EcRE) placed along with the herpes virus thymidine kinase promoter upstream of the firefly luciferase gene. The reporter plasmid was transfected into CV-1 cells, either a) alone, b) with an expression plasmid encoding full length FXR, c) with an expression plasmid encoding full length RXRα, d) with two expression plasmids encoding full length FXR and RXRα respectively, and e) with two expression plasmids encoding full length FXR and RXRm, respectively. Plasmid constructions, transfection, incubation with test compounds, and luciferase activity assays were performed as described in Example 1.

FXR-RXRα heterodimer = target: T2, FXR-RXRα heterodimer (UniProt P19793+Q62735); test: EcRE-TK-Luc transactivation in CV-1 cells cotransfected with FXR and RXR; assay type: cell-based, rat; details: for luciferase activity response, cells cotransfected with FXR and RXRα: Example 5, FIG. 6; for FXR activity as stated for panel compounds: Example 5 panel description, JH III 50 μM
T2 construct: Full-length recombinant rat FXR and human RXR (or RXRm) cloned into the cloning site of plasmid pCMX; expressed in transfected cells; host or cells: CV-1 cells
T2 sequence (Q62735 1-469): T1 sequence (Q62735 1-469)
T2 sequence (P19793 1-462): T1 sequence (P19793 1-462 D322P partner) with P322D
Text: as §1, §2, §3, §4
Transient cotransfection of full length rat FXR, human RXR and the luciferase reporter plasmid was performed as above. A set of cotransfectant CV-1 cells was incubated in 1, 2, 10, and 20 μM AGN 10. Separate sets of cotransformants were given 1, 10, 20, 100, and 200 μM of either CDCA, DCA or LCA. All compounds were dissolved in DMSO. All transformant cells were permitted to incubate for approximately 44 hours with the indicated compound, then the amount of transactivation activity was measured using the luciferase assay, as indicated above.
as §5

FXR-RXRα complex = target: T3, FXR-RXRα complex (UniProt P19793+Q62735); details: Forman et al., Cell 81:687-693 (1995); cited from earlier work
T3 sequence (Q62735 1-469): T1 sequence (Q62735 1-469)
T3 sequence (P19793 1-462): T1 sequence (P19793 1-462 D322P partner) with P322D

FXR or RXR alone = details: Forman et al., Cell 81:687-693 (1995); cited from earlier work
[1] = Example 2, FIG. 2, ~44 hours, AGN 10 5-10 μM, LG 268 100 nM, bovine bile extract

For C[C@H](CCC(=O)O)[C@H]1CC[C@H]2[C@@H]3C(=O)C[C@@H]4CC(=O)CC[C@]4(C)[C@H]3CC[C@]12C [3-7-diketolithocholic acid, 3,7-diketolithocholic acid], the FXR transactivating activity (FXR-RXRm heterodimer; ~44 hours) was “measurable FXR transactivating activity”.

With C[C@H](CCC(=O)O)[C@H]1CC[C@H]2[C@@H]3C(=O)C[C@@H]4C[C@H](O)CC[C@]4(C)[C@H]3CC[C@]12C [7-ketolithocholic acid] the FXR transactivating activity (FXR-RXRm heterodimer; ~44 hours) was “measurable FXR transactivating activity”.

In the case of CC1(C)CCC(C)(C)c2cc(/C(=C/c3ccc(C(=O)C(=O)O)cc3)[Si](C)(C)C)ccc21 [AGN 10], the “FXR-mediated transactivation (luciferase activity), FXR-RXRm cotransfected cells” value (FXR-RXRm heterodimer; [1]) is reported as “almost as much activity”, the FXR transactivating activity (FXR-RXRm heterodimer; ~44 hours) is reported as “measurable FXR transactivating activity” and the “transactivation activity, cells cotransfected with FXR and RXRm” value (FXR-RXRm heterodimer) is reported as “significant levels of transctivation activity”. The “FXR ligand classification from the data” value (FXR-RXRm heterodimer; Example 5, conclusion) was “FXR agonists”, the “FXR-mediated transactivation (luciferase activity), FXR-RXR cotransfected cells” value (FXR-RXRα heterodimer; [1]) was “almost as much activity” and the “concentration at which FXR agonist activity is at a maximum” value (FXR-RXRα heterodimer; Example 4, FIG. 4, rat FXR, human RXR, ~44 hours) was 10 µM. The “luciferase activity response, cells cotransfected with FXR and RXRα” value (FXR-RXRα heterodimer) was “highest activity response”.

With CC1(C)CCC(C)(C)c2cc(C(=O)Nc3ccc(C(=O)O)cc3)ccc21 [Am 580] the “FXR activity as stated for panel compounds” value (shortened to “FXR activity as stated”) (FXR-RXRα heterodimer) was “does not have FXR activity”.

In the case of C/C(=C\c1ccc(C(=O)O)cc1)c1ccc2c(c1)C(C)(C)CCC2(C)C [TTNPB], the “transactivation activity, cells cotransfected with FXR and RXRm” value (FXR-RXRm heterodimer) is reported as “significant levels of transctivation activity”, the “luciferase activity response, cells cotransfected with FXR and RXRα” value (FXR-RXRα heterodimer) is reported as “highest activity response” and the “FXR activity as stated” value (FXR-RXRα heterodimer) is reported as “has FXR activity”.

In the case of CC(C)CCC[C@@H](C)[C@H]1CC[C@H]2[C@@H]3CC=C4C[C@@H](O)CC[C@]4(C)[C@H]3CC[C@]12C [cholesterol], the “activation of the FXR-RXR complex” value (FXR-RXRα complex) is listed as “did not activate”.

For CC(C)=CCCC(C)=CCCC(C)=CC=O [farnesal], the “activation of the FXR-RXR complex” value (FXR-RXRα complex) is given as “somewhat less strongly”.

In the case of CC(C)=CCCC(C)=CCCC(C)=CC(=O)O [farnesoic acid], the “activation of the FXR-RXR complex” value (FXR-RXRα complex) is given as “somewhat less strongly”.

For CC(C)=CCC/C(C)=C/CO [geraniol], the “activation of the FXR-RXR complex” value (FXR-RXRα complex) is given as “did not activate”.

In the case of CC(C)=CCC/C(C)=C/CC/C(C)=C/CC/C(C)=C/CO [geranylgeraniol], the “activation of the FXR-RXR complex” value (FXR-RXRα complex) is given as “somewhat less strongly”.

For CC(C)=CCC/C(C)=C/CC/C(C)=C/CC/C=C(\C)CC/C=C(\C)CCC=C(C)C [squalene], the “activation of the FXR-RXR complex” value (FXR-RXRα complex) is given as “did not activate”.

In the case of juvenile hormone III, the “activation of the FXR-RXR complex” value (FXR-RXRα complex) is listed as “activated”, the “FXR activity as stated” value (FXR-RXRα heterodimer) is listed as “an FXR agonist” and the “activation of FXR or RXR alone” value (FXR or RXR alone) is listed as “does not activate”.
